Measured values from PubChem BioAssay AID248 (DTP/NCI, 2004).
Values joined by “and” are separate entries in the source; they are usually repeats but may differ in a detail not shown here. Equal values may be shown once. Toxic doses and inconclusive results are not listed. Rule as the data show it: active = T/C of 150% or more; inactive = T/C below 125%.

System: L1210 leukemia ip in BDF1 mice, survival T/C
Assay: NCI In Vivo Anticancer Drug Screen. Data for tumor model L1210 Leukemia (intraperitoneal) in B6D2F1 (BDF1) mice
Details: endpoint: mean survival time, higher = longer survival
How it was run: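 Transplanted-tumor mice were given test agent; controls received vehicle only. Survival readings from the two groups were divided (treated over control).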

[1] = dose: 100.0 mg/kg/injection, schedule: Q01DX001 (ip), vehicle: carboxymethylcellulose (CMC)
[2] = dose: 200.0 mg/kg/injection, schedule: Q01DX001 (ip), vehicle: carboxymethylcellulose (CMC)
[3] = dose: 400.0 mg/kg/injection, schedule: Q01DX001 (ip), vehicle: carboxymethylcellulose (CMC)
[4] = dose: 100.0 mg/kg/injection, schedule: Q01DX009 (ip), vehicle: saline with Tween-80
[5] = dose: 100.0 mg/kg/injection, schedule: Q04DX003 (ip), vehicle: saline with Tween-80
[6] = dose: 200.0 mg/kg/injection, schedule: Q01DX009 (ip), vehicle: saline with Tween-80
[7] = dose: 200.0 mg/kg/injection, schedule: Q04DX003 (ip), vehicle: saline with Tween-80
[8] = dose: 400.0 mg/kg/injection, schedule: Q04DX003 (ip), vehicle: saline with Tween-80
[9] = dose: 50.0 mg/kg/injection, schedule: Q01DX009 (ip), vehicle: saline with Tween-80
[10] = dose: 50.0 mg/kg/injection, schedule: Q04DX003 (ip), vehicle: saline
[11] = dose: 100.0 mg/kg/injection, schedule: Q04DX003 (ip), vehicle: saline
[12] = dose: 100.0 mg/kg/injection, schedule: Q04DX003 (ip), vehicle: Klucel (hydroxypropylcellulose) (HPC)
[13] = dose: 200.0 mg/kg/injection, schedule: Q04DX003 (ip), vehicle: Klucel (hydroxypropylcellulose) (HPC)
[14] = dose: 400.0 mg/kg/injection, schedule: Q04DX003 (ip), vehicle: Klucel (hydroxypropylcellulose) (HPC)
[15] = dose: 25.0 mg/kg/injection, schedule: Q01DX009 (ip), vehicle: Klucel (hydroxypropylcellulose) (HPC)
[16] = dose: 50.0 mg/kg/injection, schedule: Q01DX009 (ip), vehicle: Klucel (hydroxypropylcellulose) (HPC)
[17] = dose: 50.0 mg/kg/injection, schedule: Q04DX003 (ip), vehicle: Klucel (hydroxypropylcellulose) (HPC)
[18] = dose: 100.0 mg/kg/injection, schedule: Q01DX001 (ip), vehicle: saline
[19] = dose: 200.0 mg/kg/injection, schedule: Q01DX001 (ip), vehicle: saline
[20] = dose: 400.0 mg/kg/injection, schedule: Q01DX001 (ip), vehicle: saline

Measured: T/C

CCOP(=O)(NC(C)(C)C)OCC
inactive: dose: 50.0 mg/kg/injection, schedule: Q01DX001 (ip), vehicle: carboxymethylcellulose (CMC) 107 % of control | [1] 107 % of control | [2] 105 % of control | [3] 100 % of control

CC(=O)CC(C)=NCC(C)N=C(C)CC(C)=O (stereo unspecified)
inactive: [4] 89 % of control | [5] 100 % of control | [6] 98 % of control | [7] 101 % of control | [8] 93 % of control

Nc1ccc(-c2cc3ccccc3oc2=O)cc1
inactive: dose: 6.25 mg/kg/injection, schedule: Q04DX002 (ip), vehicle: Klucel (hydroxypropylcellulose) (HPC) 100 % of control and 119 % of control | dose: 12.5 mg/kg/injection, schedule: Q04DX002 (ip), vehicle: Klucel (hydroxypropylcellulose) (HPC) 92 % of control and 111 % of control | dose: 25.0 mg/kg/injection, schedule: Q04DX002 (ip), vehicle: Klucel (hydroxypropylcellulose) (HPC) 92 % of control and 102 % of control

CC(=O)Nc1cc(C(=O)O)cc(NC(C)=O)c1C
inactive: [5] 103 % of control | [7] 98 % of control | [8] 101 % of control

C/C=C(/Cl)c1c(C)cc(C)cc1C
inactive: dose: 25.0 mg/kg/injection, schedule: Q01DX009 (ip), vehicle: saline with Tween-80 91 % of control | [9] 98 % of control | [4] 89 % of control and 91 % of control | [5] 101 % of control | [7] 98 % of control | dose: 400.0 mg/kg/injection, schedule: Q01DX009 (ip), vehicle: saline with Tween-80 98 % of control | [8] 101 % of control

COc1ccccc1NP1(=O)OCC(C)([N+](=O)[O-])CO1 (stereo unspecified)
inactive: [1] 89 % of control | [2] 104 % of control | [3] 93 % of control

CN1CCC=C(CN2c3ccccc3Sc3ccccc32)C1
inactive: dose: 25.0 mg/kg/injection, schedule: Q01DX009 (ip), vehicle: saline 109 % of control | dose: 25.0 mg/kg/injection, schedule: Q04DX003 (ip), vehicle: saline 101 % of control | dose: 50.0 mg/kg/injection, schedule: Q01DX009 (ip), vehicle: saline 119 % of control | [10] 105 % of control | dose: 100.0 mg/kg/injection, schedule: Q01DX009 (ip), vehicle: saline 124 % of control | [11] 103 % of control and 105 % of control

CC(O)C(c1ccccc1)c1ccccc1 (stereo unspecified)
inactive: [9] 94 % of control | [4] 102 % of control | [6] 97 % of control

CN(C)C1C2C(CS2(=O)=O)C1(C)C (stereo unspecified)
inactive: dose: 75.0 mg/kg/injection, schedule: Q01DX001 (ip), vehicle: carboxymethylcellulose (CMC) 100 % of control | dose: 150.0 mg/kg/injection, schedule: Q01DX001 (ip), vehicle: carboxymethylcellulose (CMC) 100 % of control

CC(N=Nc1ccccc1)/N=N/c1nn[nH]n1 (stereo unspecified)
inactive: [12] 100 % of control | [13] 94 % of control | [14] 96 % of control

CC1CCCCC1OC(=O)CCN1CC1 (stereo unspecified)
inactive: dose: 3.0 mg/kg/injection, schedule: Q01DX009 (ip), vehicle: Klucel (hydroxypropylcellulose) (HPC) 94 % of control | dose: 6.0 mg/kg/injection, schedule: Q01DX009 (ip), vehicle: Klucel (hydroxypropylcellulose) (HPC) 94 % of control | dose: 12.0 mg/kg/injection, schedule: Q01DX009 (ip), vehicle: Klucel (hydroxypropylcellulose) (HPC) 100 % of control | [15] 94 % of control and 102 % of control | [16] 109 % of control | [17] 108 % of control | [12] 97 % of control and 108 % of control | [13] 104 % of control

Clc1ccc(/C=N/Nc2nnc(N/N=C/c3ccc(Cl)cc3)c3ccccc23)cc1
inactive: dose: 50.0 mg/kg/injection, schedule: Q01DX001 (ip), vehicle: saline 95 % of control | [18] 101 % of control | [19] 101 % of control | [20] 95 % of control

CC(=O)C(=O)C1=C2CCCN2CCc2cc3c(cc21)OCO3
inactive: dose: 100.0 mg/kg/injection, schedule: Q04DX002 (ip), vehicle: Klucel (hydroxypropylcellulose) (HPC) 111 % of control | dose: 200.0 mg/kg/injection, schedule: Q04DX002 (ip), vehicle: Klucel (hydroxypropylcellulose) (HPC) 114 % of control | dose: 400.0 mg/kg/injection, schedule: Q04DX002 (ip), vehicle: Klucel (hydroxypropylcellulose) (HPC) 118 % of control

Nc1nc2ncc(CNc3ccc(C(=O)NC(CCC(=O)O)C(=O)O)nc3)nc2c(=O)[nH]1 (stereo unspecified)
inactive: dose: 0.75 mg/kg/injection, schedule: Q01DX009 (ip), vehicle: alkali diluted with saline 105 % of control | dose: 1.5 mg/kg/injection, schedule: Q01DX009 (ip), vehicle: alkali diluted with saline 102 % of control | dose: 3.0 mg/kg/injection, schedule: Q01DX009 (ip), vehicle: alkali diluted with saline 111 % of control | dose: 6.0 mg/kg/injection, schedule: Q01DX009 (ip), vehicle: alkali diluted with saline 102 % of control | dose: 12.0 mg/kg/injection, schedule: Q01DX009 (ip), vehicle: alkali diluted with saline 100 % of control | dose: 18.0 mg/kg/injection, schedule: Q01DX009 (ip), vehicle: alkali diluted with saline 112 % of control | dose: 24.0 mg/kg/injection, schedule: Q01DX009 (ip), vehicle: alkali diluted with saline 108 % of control | dose: 36.0 mg/kg/injection, schedule: Q01DX009 (ip), vehicle: alkali diluted with saline 108 % of control | dose: 48.0 mg/kg/injection, schedule: Q01DX009 (ip), vehicle: alkali diluted with saline 118 % of control | dose: 75.0 mg/kg/injection, schedule: Q01DX001 (ip), vehicle: alkali diluted with saline 111 % of control | dose: 150.0 mg/kg/injection, schedule: Q01DX001 (ip), vehicle: alkali diluted with saline 105 % of control

COc1ccc2c(c1)N(CCCN(C)C)c1ccccc1S2
inactive: dose: 4.68 mg/kg/injection, schedule: Q01DX009 (ip), vehicle: saline 118 % of control | dose: 9.37 mg/kg/injection, schedule: Q01DX009 (ip), vehicle: saline 115 % of control | dose: 18.75 mg/kg/injection, schedule: Q01DX009 (ip), vehicle: saline 115 % of control | dose: 18.75 mg/kg/injection, schedule: Q04DX003 (ip), vehicle: saline 104 % of control | dose: 37.5 mg/kg/injection, schedule: Q01DX009 (ip), vehicle: saline 118 % of control | dose: 37.5 mg/kg/injection, schedule: Q04DX003 (ip), vehicle: saline 114 % of control | dose: 75.0 mg/kg/injection, schedule: Q01DX009 (ip), vehicle: saline 95 % of control | dose: 75.0 mg/kg/injection, schedule: Q04DX003 (ip), vehicle: saline 121 % of control

CC(SC1=NCCN1)C(=O)O (stereo unspecified)
inactive: [18] 98 % of control | [19] 94 % of control | [20] 98 % of control

N#C/C(=C\c1c[nH]c2ccccc12)C(N)=O
inactive: [10] 104 % of control | [5] 93 % of control | [11] 107 % of control | [7] 104 % of control | dose: 200.0 mg/kg/injection, schedule: Q04DX003 (ip), vehicle: saline 95 % of control | [8] 96 % of control | dose: 400.0 mg/kg/injection, schedule: Q04DX003 (ip), vehicle: saline 97 % of control

O=c1nc2c(ncn2C2OC(CO)C(O)C2O)c(NCCc2ccccc2)[nH]1 (stereo unspecified)
inactive: dose: 50.0 mg/kg/injection, schedule: Q01DX005 (ip), vehicle: water 100 % of control | dose: 100.0 mg/kg/injection, schedule: Q01DX005 (ip), vehicle: water 94 % of control | dose: 200.0 mg/kg/injection, schedule: Q01DX005 (ip), vehicle: water 105 % of control | dose: 400.0 mg/kg/injection, schedule: Q01DX005 (ip), vehicle: water 113 % of control

NN(CC1=COc2ccccc2O1)Cc1ccccc1
inactive: [15] 100 % of control | dose: 25.0 mg/kg/injection, schedule: Q04DX003 (ip), vehicle: Klucel (hydroxypropylcellulose) (HPC) 92 % of control | [16] 94 % of control | [17] 92 % of control | dose: 100.0 mg/kg/injection, schedule: Q01DX009 (ip), vehicle: Klucel (hydroxypropylcellulose) (HPC) 96 % of control | [12] 92 % of control | dose: 200.0 mg/kg/injection, schedule: Q01DX009 (ip), vehicle: Klucel (hydroxypropylcellulose) (HPC) 95 % of control | [13] 95 % of control | [14] 97 % of control
